Assay results taken from patent US11479528B2, “Heat shock protein 90 inhibitors” (TAIPEI MEDICAL UNIVERSITY, priority 2017, dated 2022).
Read-outs that look alike come from different tables or passages of the source.

Key:
[1] = tested on: prostate PC3; assay: Sulforhodamine B (SRB) assay, prostate PC3; type: cell-based; details: Homo sapiens, Table 1, 48 h
Method: (§1) Human cancer cells were purchased from the American Type Culture Collection (Manassas, Va., USA). These cell lines were cultured in RPMI 1640 medium or DMEM supplemented with 10% FBS (v/v) and pencillin (100 U/mL)/streptomycin (100 ug/mL)/amphotericin B (0.25 ug/mL). Cultures were maintained at 37° C. in a humidified atmosphere of 5% CO2/95% air.
(§2) Cells were seeded in 96-well plates in medium with 5% fetal bovine serum. After 24 h, cells were fixed with 10% trichloroacetic acid to represent cell population at the time of drug addition (T0). After additional incubation of DMSO or drugs for 48 h, cells were fixed with 10% trichloroacetic acid and sulforhodamine B at 0.4% (w/v) in 1% acetic acid was added to stain cells. Unbound sulforhodamine B was washed out by 1% acetic acid and sulforhodamine B-bound cells were solubilized with 10 mmol/L Trizma base. The absorbance was read at a wavelength of 515 nm. Using the following absorbance measurements, such as time zero (T0), control growth (C), and cell growth in the presence of the drug (Tx), the percentage growth was calculated at each of the compound concentrations levels. Percentage growth inhibition was calculated as […].

[2] = tested on: colorectal HCT116; assay: Sulforhodamine B (SRB) assay, colorectal HCT116; type: cell-based; details: Homo sapiens
Method: as §1, §2

[3] = tested on: liver Hep3B; assay: Sulforhodamine B (SRB) assay, liver Hep3B; type: cell-based; details: Homo sapiens, 48 h, read-out: GI50 Liver Hep3B
Method: as §1, §2

[4] = tested on: HUVEC cells; assay: Sulforhodamine B (SRB) assay, HUVEC; details: Homo sapiens, HUVEC, 48 h, read-out: GI50 HUVEC
Method: as §1, §2

[5] = Pharmacokinetic profiles in rat; details: in vivo
Method: A pharmacokinetic study was conducted to evaluate the pharmacokinetic properties of compounds of formula (I).

[6] = tested on: human colon HCT116 xenograft; assay: Human colon HCT116 xenograft model; details: 100 mg/kg, po; for TGI, tumor growth inhibition: n = 7-8
Method: An in vivo study was conducted to evaluate the efficacy of compounds of formula (I) in suppressing tumor growth in a human colon HCT116 xenograft model.

[7] = tested on: breast MDA-MB-231; assay: Sulforhodamine B (SRB) assay, breast MDA-MB-231; type: cell-based; details: Homo sapiens, read-out: GI50 Breast MDA-MB-231
Method: as §1, §2

[8] = tested on: lung A549; assay: Sulforhodamine B (SRB) assay, lung A549; type: cell-based, human; details: Homo sapiens
Method: Human cancer cells were purchased from the American Type Culture Collection (Manassas, Va., USA).
Cells were seeded in 96-well plates in medium with 5% fetal bovine serum. […] Unbound sulforhodamine B was washed out by 1% acetic acid and sulforhodamine B-bound cells were solubilized with 10 mmol/L Trizma base. […] Using the following absorbance measurements, such as time zero (T0), control growth (C), and cell growth in the presence of the drug (Tx), the percentage growth was calculated at each of the compound concentrations levels. Percentage growth inhibition was calculated as […].

[9] = biological target: HSP90 α protein (Homo sapiens, UniProt P07900); assay: HSP90 ATP-binding / fluorescence polarization competition assay (enzyme inhibition)
Method: To assess the inhibition of HSP90 activity within a cellular context, cells were treated with certain substituted aromatic compounds of formula (I) and the inhibition of HSP90 ATP-binding activity in cells was determined by using an ATP pull-down assay. Cells were treated with the compounds for 24 hours and then lysed in TNESV buffer (50 mM Tris, 2 mM EDTA, […], 1 mM activated sodium orthovanadate, 25 mM NaF, 1% Triton X-100 [pH 7.5]) for 30 min at 4° C. Lysates were spun for 30 min at 12000 rpm at 4° C. Protein (200 ug) was incubated with conditioned γ-ATP-polyacrylamide resin in incubation buffer (10 mM Tris-HCl, 50 mM KCl, 5 mM MgCl2, 20 mM Na2MoO4, 0.01% Nonidet P-40) overnight at 4° C., rotating. The resin was then washed four times with incubation buffer. Bound proteins were isolated by boiling with SDS buffer. For the competition studies, fluorescence polarization assays were performed under the following conditions: each 96-well plate contained 5 nM fluorescent GM (geldanamycin), 30 nM HSP90 α protein, and tested inhibitor in a final volume of 100 uL. For each assay, background wells (buffer only), tracer controls (free, fluorescent GMonly), and bound GM controls (fluorescent GM in the presence of HSP90) were included on each assay plate. The fraction of tracer bound to HSP90 was correlated to the mP value and plotted against log 10 values of competitor concentrations. The inhibitor concentration at which 50% of bound GM was displaced was obtained by fitting the data.

[10] = Maximum tolerated dose and therapeutic index in vivo
[11] = HCT-116, Table 1, SRB, 48 h, read-out: GI50 Colorectal HCT116
[12] = A549, Table 1, SRB, 48 h, read-out: GI50 Lung A549

CC(C)c1cc(C(=O)N(C)c2ccc3c(c2)CCCN3)c(O)cc1O [Compound 33a, 2,4-dihydroxy-5-isopropyl-N-methyl-N-(1,2,3,4-tetrahydroquinolin-6-yl)benzamide]
GI50 [1]: 7.66 ± 0.42 µM | GI50 [2, 11]: 5.79 ± 0.11 µM

CCN(C(=O)c1cc(C(C)C)c(O)cc1O)c1ccncc1 [Compound 19b, N-ethyl-2,4-dihydroxy-5-isopropyl-N-(pyridin-4-yl)benzamide]
GI50 ([3]; Table 1, SRB): 0.1 ± 0.01 µM | GI50 [4]: < 0.1 µM | Vd ([5]; iv, 2 mg/kg): 12 ± 8.9 L/kg | AUC(0-inf) ([5]; iv, 2 mg/kg, AUC(0-inf), IV (2 mg/kg)): 0.442 ± 0.049 µg·h/mL | clearance ([5]; iv, 2 mg/kg, CL, IV (2 mg/kg)): 4.5 ± 0.288 L/h/kg | half-life ([5]; iv, 2 mg/kg, T1/2, rat, IV (2 mg/kg)): 8.1 ± 4.7 h | Cmax ([5]; po, 20 mg/kg): 0.051 ± 0.009 µg/mL | Tmax ([5]; po, 20 mg/kg): 0.3 ± 0.1 h | bioavailability ([5]; po, 20 mg/kg): 11% | AUC(0-inf) ([5]; po, 20 mg/kg, AUC(0-inf), PO (20 mg/kg)): 0.485 ± 0.103 µg·h/mL | half-life ([5]; po, 20 mg/kg, T1/2, rat, PO (20 mg/kg)): 11 ± 7.6 h | TGI, tumor growth inhibition ([6]; qd): 29.1% | GI50 ([7]; MDA-MB-231, Table 1, SRB, 48 h): 0.08 ± 0.01 µM | GI50 [8, 12]: 0.12 ± 0.01 µM | GI50 ([8]; A549, Table 2, SRB, read-out: A549 GI50): 0.12 ± 0.01 µM | IC50 ([9]; 5 nM fluorescent GM, 30 nM HSP90 α, read-out: HSP90 IC50 enzyme inhibition): 0.109 ± 0.00535 µM | GI50 [2, 11]: 0.64 ± 0.41 µM | GI50 ([2]; HCT-116, Table 2, SRB, read-out: HCT116 GI50): 0.64 ± 0.41 µM

CC(C)c1cc(C(=O)N(C)c2ncnc3c2ccn3C)c(O)cc1O [Compound 27b, 2,4-dihydroxy-5-isopropyl-N-methyl-N-(7-methyl-7H-pyrrolo[2,3-d]pyrimidin-4-yl)benzamide]
GI50 [1]: 8.49 ± 0.49 µM | GI50 [2, 11]: 8.96 ± 0.18 µM

CC(C)c1cc(C(=O)Nc2ncnc3c2ccn3C)c(O)cc1O [Compound 27a, 2,4-dihydroxy-5-isopropyl-N-(7-methyl-7H-pyrrolo[2,3-d]pyrimidin-4-yl)benzamide]
GI50 [1]: > 10 µM | GI50 [2, 11]: > 10 µM

CC(C)c1cc(C(=O)N(C)c2cccc3ncccc23)c(O)cc1O [Compound 29b, 2,4-dihydroxy-5-isopropyl-N-methyl-N-(quinolin-5-yl)benzamide]
GI50 [1]: > 10 µM | GI50 [8, 12]: > 10 µM | GI50 [2, 11]: > 10 µM

CC(C)c1cc(C(=O)N(c2ncnc3c2ccn3C)C(C)C)c(O)cc1O [Compound 27e, 2,4-dihydroxy-N, 5-diisopropyl-N-(7-methyl-7H-pyrrolo[2,3-d]pyrimidin-4-yl)benzamide]
GI50 [1]: > 10 µM | GI50 [2, 11]: 8.77 ± 0.1 µM

CCN(C(=O)c1cc(C(C)C)c(O)cc1O)c1ccc2[nH]ccc2c1 [Compound 20c, N-ethyl-2,4-dihydroxy-N-(1H-indol-5-yl)-5-isopropylbenzamide]
GI50 [3]: 0.11 ± 0.02 µM | GI50 [4]: < 0.1 µM | AUC(0-inf) ([5]; iv, 2 mg/kg): 0.234 ± 0.114 µg·h/mL | Vd ([5]; iv, 2 mg/kg): 9 ± 2.8 L/kg | clearance ([5]; iv, 2 mg/kg): 10.2 ± 3.84 L/h/kg | half-life ([5]; iv, 2 mg/kg): 1.5 ± 0.5 h | AUC(0-inf) ([5]; po, 20 mg/kg): 0.499 ± 0.038 µg·h/mL | Cmax ([5]; po, 20 mg/kg): 0.067 ± 0.023 µg/mL | Tmax ([5]; po, 20 mg/kg): 2.7 ± 1.2 h | bioavailability ([5]; po, 20 mg/kg): 22% | half-life ([5]; po, 20 mg/kg): 5.9 ± 1.6 h | TI, Therapeutic Index, ratio of MTD to minimum efficacious dose (MED) ([10]; MTD/MED): 1 | MTD ([10]; in vivo, po): 100 mg/kg | Loss of Body ([6]; qd × 7/5 on 2 off, Day 7): −15.4% | TGI, tumor growth inhibition ([6]; qd × 7/5 on 2 off): 33.1% | GI50 ([7]; MDA-MB-231, 48 h): 0.08 ± 0.01 µM | GI50 ([8]; A549, 48 h, read-out: GI50 Lung A549): 0.11 ± 0.01 µM | GI50 ([8]; A549, read-out: A549 GI50): 0.11 ± 0.01 µM | IC50 [9]: 0.117 ± 0.00962 µM | GI50 ([2]; HCT-116, 48 h, read-out: GI50 Colorectal HCT116): 0.37 ± 0.05 µM | GI50 ([2]; HCT-116, read-out: HCT116 GI50): 0.37 ± 0.05 µM

CCN(C(=O)c1cc(C(C)C)c(O)cc1O)c1cc(C)nc2ccccc12 [Compound 32c, N-ethyl-2,4-dihydroxy-5-isopropyl-N-(2-methylquinolin-4-yl)benzamide]
GI50 [1]: 6.3 ± 0.3 µM | GI50 [8, 12]: 5.67 ± 0.06 µM | GI50 [2, 11]: 5.99 ± 0.3 µM

CCCN(C(=O)c1cc(C(C)C)c(O)cc1O)c1cnc2ccccc2c1 [Compound 28d, 2,4-dihydroxy-5-isopropyl-N-propyl-N-(quinolin-3-yl)benzamide]
GI50 [1]: 2.33 ± 0.04 µM | GI50 [8, 12]: 1.16 ± 0.1 µM | GI50 [2, 11]: 1.21 ± 0.13 µM

CC(C)c1cc(C(=O)Nc2cnc3c(ccn3C)c2)c(O)cc1O [Compound 24b, 2,4-dihydroxy-5-isopropyl-N-(1-methyl-1H-pyrrolo[2,3-b]pyridin-5-yl)benzamide]
GI50 [1]: > 10 µM | GI50 [8, 12]: > 10 µM | GI50 [2, 11]: > 10 µM

CCN(C(=O)c1cc(C(C)C)c(O)cc1O)c1ncnc2c1ccn2C [Compound 27c, N-ethyl-2,4-dihydroxy-5-isopropyl-N-(7-methyl-7H-pyrrolo[2,3-d]pyrimidin-4-yl)benzamide]
GI50 [1]: 6.68 ± 0.55 µM | GI50 [2, 11]: 3.49 ± 0.15 µM

CC(C)c1cc(C(=O)N(C)c2ccc3c(c2)CCCN3C)c(O)cc1O [Compound 33c, 2,4-dihydroxy-5-isopropyl-N-methyl-N-(1-methyl-1,2,3,4-tetrahydroquinolin-6-yl)benzamide]
GI50 [1]: 8.5 ± 0.45 µM | GI50 [2, 11]: 6.51 ± 0.09 µM

CCCN(C(=O)c1cc(C(C)C)c(O)cc1O)c1ncnc2c1ccn2C [Compound 27d, 2,4-dihydroxy-5-isopropyl-N-(7-methyl-7H-pyrrolo[2,3-d]pyrimidin-4-yl)-N-propylbenzamide]
GI50 [1]: > 10 µM | GI50 [2, 11]: > 10 µM

CCN(C(=O)c1cc(C(C)C)c(O)cc1O)c1ccc2c(c1)CCCN2C [Compound 33d, N-ethyl-2,4-dihydroxy-5-isopropyl-N-(1-methyl-1,2,3,4-tetrahydroquinolin-6-yl)benzamide]
GI50 [1]: 8.18 ± 0.46 µM | GI50 [2, 11]: 5.71 ± 0.12 µM

CCN(C(=O)c1cc(C(C)C)c(O)cc1O)c1ccc2c(c1)CCCN2 [Compound 33b, N-ethyl-2,4-dihydroxy-5-isopropyl-N-(1,2,3,4-tetrahydroquinolin-6-yl)benzamide]
GI50 [1]: 6.01 ± 0.41 µM | GI50 [2, 11]: 5.38 ± 0.1 µM

CC(C)c1cc(C(=O)N(C)c2cccc3cccnc23)c(O)cc1O [Compound 31b, 2,4-dihydroxy-5-isopropyl-N-methyl-N-(quinolin-8-yl)benzamide]
GI50 [1]: 8.93 ± 0.25 µM | GI50 [8, 12]: 8.7 ± 0.25 µM | GI50 [2, 11]: > 10 µM

CC(C)c1cc(C(=O)Nc2cnc3[nH]ncc3c2)c(O)cc1O [Compound 26a, 2,4-dihydroxy-5-isopropyl-N-(1H-pyrazolo[3,4-b]pyridin-5-yl)benzamide]
GI50 [1]: > 10 µM | GI50 [8, 12]: > 10 µM | GI50 [2, 11]: > 10 µM
